Test [1] has as its target T1, Replicative DNA helicase DnaB (Mycobacterium tuberculosis, UniProt P9WMR3).
T1 sequence (P9WMR3 whole entry): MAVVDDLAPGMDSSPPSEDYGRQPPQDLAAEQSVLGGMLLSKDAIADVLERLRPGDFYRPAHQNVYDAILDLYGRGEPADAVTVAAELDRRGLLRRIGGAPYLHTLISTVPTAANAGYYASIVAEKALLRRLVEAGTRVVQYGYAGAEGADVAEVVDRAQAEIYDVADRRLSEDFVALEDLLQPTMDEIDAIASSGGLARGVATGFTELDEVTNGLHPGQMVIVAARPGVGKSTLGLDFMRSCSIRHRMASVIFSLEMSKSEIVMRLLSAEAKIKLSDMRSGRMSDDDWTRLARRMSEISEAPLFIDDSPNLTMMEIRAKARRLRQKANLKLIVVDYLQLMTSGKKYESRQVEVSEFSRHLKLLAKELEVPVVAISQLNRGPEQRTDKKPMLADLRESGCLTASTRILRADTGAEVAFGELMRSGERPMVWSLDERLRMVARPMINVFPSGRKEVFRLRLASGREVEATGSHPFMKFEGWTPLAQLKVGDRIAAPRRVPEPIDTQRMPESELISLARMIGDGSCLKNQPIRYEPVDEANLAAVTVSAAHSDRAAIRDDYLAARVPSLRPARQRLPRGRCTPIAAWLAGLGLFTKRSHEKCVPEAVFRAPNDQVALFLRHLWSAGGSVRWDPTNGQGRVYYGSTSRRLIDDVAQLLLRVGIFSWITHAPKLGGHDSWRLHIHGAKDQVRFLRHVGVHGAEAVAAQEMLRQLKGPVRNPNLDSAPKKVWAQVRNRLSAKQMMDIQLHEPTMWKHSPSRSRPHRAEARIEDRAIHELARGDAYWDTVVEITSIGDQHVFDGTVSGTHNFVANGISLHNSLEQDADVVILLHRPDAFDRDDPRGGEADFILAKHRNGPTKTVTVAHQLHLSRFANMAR
Kind of test: DnaB intein splicing inhibitors, dose response, biochemical, cell-free fluorescence (AID 449749). It is filed as functional.

For the next test, the target named is T2, Protein RecA (Mycobacterium tuberculosis, UniProt P9WHJ3).
T2 sequence (P9WHJ3 whole entry): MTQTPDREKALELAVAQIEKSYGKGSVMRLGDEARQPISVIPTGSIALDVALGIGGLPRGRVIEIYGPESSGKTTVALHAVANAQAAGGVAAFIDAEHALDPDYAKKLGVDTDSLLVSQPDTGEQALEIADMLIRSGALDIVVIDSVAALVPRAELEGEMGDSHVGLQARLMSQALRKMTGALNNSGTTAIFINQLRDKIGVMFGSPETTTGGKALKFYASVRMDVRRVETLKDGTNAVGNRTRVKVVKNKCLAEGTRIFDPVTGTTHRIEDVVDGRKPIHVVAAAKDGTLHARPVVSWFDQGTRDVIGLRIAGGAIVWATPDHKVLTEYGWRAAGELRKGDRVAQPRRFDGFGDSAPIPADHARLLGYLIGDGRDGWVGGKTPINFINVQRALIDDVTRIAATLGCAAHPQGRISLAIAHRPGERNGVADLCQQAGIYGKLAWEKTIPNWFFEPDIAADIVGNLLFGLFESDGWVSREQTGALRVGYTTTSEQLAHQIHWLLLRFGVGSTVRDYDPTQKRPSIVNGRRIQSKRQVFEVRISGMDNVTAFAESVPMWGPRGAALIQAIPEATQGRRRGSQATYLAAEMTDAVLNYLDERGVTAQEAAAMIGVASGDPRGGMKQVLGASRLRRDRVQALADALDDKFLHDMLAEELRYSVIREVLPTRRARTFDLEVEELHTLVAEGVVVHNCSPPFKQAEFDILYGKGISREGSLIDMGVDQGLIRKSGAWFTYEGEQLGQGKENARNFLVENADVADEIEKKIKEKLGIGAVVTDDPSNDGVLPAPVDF
Kind of test: Fluorescence Cell-Free Homogeneous Dose Retest to Identify Inhibitors of RecA-Intein Splicing Activity. [Related pubchem assays (depositor defined):AID2097, AID2223, AID489010, AID492950]. It is filed as functional.

For the next test, the system named is Streptococcus. The experiment in a line: Group A Streptococcus viability loss, dose response, counter-screen for streptokinase expression inhibitor project, luminescence, BacTiterGlo (AID 1915).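 Note: potency for reduction of bacterial viability or growth.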 It is filed as functional, organism-based. (In general: The purpose of a counterscreen is to sort out artefacts and off-target activity.)
Test [2] addresses NACHT, LRR and PYD domains-containing protein 3 (Homo sapiens, UniProt Q96P20). Kind of test: NALP3 inhibitors in yeast, dose response, luminescent (AID 488799). It is filed as functional.
The next test relates to INS1. Kind of test: beta cell apoptosis inhibitors, cytokine rescue, dose response, luminescence, retest (AID 449756).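 Note: cell death triggered by IL-1 beta plus TNF-alpha plus IFN-gamma mixture; protective hits raise ATP signal compared with cytokine alone wells.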 To be noted: Rattus norvegicus. It is filed as functional, cell-based.
A short description of test [3]: Counterscreen for AddAB inhibitors: absorbance-based bacterial cell-based high throughput dose response assay for inhibitors of bacterial viability. [Related pubchem assays (depositor defined):AID435030, AID449728, AID449731, AID488942, AID488955, AID488956]. It is filed as functional.

Calls of active or inactive are those of the source.

Sequence of NACHT, LRR and PYD domains-containing protein 3 (Q96P20 whole entry, the tested form may be a part): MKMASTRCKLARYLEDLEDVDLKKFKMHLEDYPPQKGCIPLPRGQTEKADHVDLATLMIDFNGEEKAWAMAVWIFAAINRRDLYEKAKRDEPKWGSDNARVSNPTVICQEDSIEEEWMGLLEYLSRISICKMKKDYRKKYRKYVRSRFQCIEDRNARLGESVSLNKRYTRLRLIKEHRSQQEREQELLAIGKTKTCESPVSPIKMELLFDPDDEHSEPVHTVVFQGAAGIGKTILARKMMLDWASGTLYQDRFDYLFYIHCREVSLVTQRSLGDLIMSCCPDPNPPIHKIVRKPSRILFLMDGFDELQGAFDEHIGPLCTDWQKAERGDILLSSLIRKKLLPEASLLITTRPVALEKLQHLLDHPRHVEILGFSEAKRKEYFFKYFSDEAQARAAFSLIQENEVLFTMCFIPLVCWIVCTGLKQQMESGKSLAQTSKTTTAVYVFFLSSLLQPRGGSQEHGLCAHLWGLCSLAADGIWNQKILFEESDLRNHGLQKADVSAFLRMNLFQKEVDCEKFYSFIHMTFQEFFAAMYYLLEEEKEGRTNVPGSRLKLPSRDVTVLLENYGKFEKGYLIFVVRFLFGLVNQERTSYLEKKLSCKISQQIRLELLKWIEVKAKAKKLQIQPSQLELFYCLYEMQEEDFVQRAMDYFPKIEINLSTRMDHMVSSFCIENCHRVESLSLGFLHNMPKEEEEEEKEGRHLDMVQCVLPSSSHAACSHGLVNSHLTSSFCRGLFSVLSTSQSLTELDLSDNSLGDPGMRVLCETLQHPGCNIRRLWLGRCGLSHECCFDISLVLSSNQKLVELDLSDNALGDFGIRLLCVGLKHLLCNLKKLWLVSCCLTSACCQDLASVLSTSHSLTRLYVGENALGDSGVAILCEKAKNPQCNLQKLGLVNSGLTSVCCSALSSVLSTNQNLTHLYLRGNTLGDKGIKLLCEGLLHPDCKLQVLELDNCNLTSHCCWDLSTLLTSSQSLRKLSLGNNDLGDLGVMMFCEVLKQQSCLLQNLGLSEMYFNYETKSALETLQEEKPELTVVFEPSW

The AC50 is the concentration giving half of the maximal activity seen. One may read the EC50 as the concentration that produces a half-maximal response. With `CC(C)c1ccc(S(=O)(=O)/N=C2\C=C(NS(=O)(=O)c3ccccc3)C(=O)c3ccccc32)cc1`, in test [1], the concentration at half-maximal activity (AC50) was 3.92 µM (active). The EC50 on Protein RecA is 3.69 µM (active).
A word on the IC50: it is the concentration needed to halve the response being measured. As for `COc1ccc(CNC(=O)c2c(C)oc3c2C(=O)c2ccccc2C3=O)cc1`, the EC50 with Streptococcus was 6.35 µM (active); at Protein RecA, 5.29 µM (active). For the same compound, the IC50 in test [2] was 9.7 µM (active). Further, the AC50 in test [1] was 13.3 µM (active); in the test with INS1 it was 2.8 µM (active).
On to `CCSc1nsc(NC(=O)Nc2cccc(F)c2)n1`, for which, in the test with Streptococcus, the EC50 was 20.7 µM (active). In addition, the IC50 in test [2] is 1.97 µM (active); in test [3], > 119 µM (inactive).
With `O=[N+]([O-])c1ccc(/C=N/n2cnc3ccccc32)s1`, the IC50 in test [3] was 91.4 µM (inactive). The AC50 with INS1 is 2.6 µM (active).

(Values after ChEMBL document CHEMBL1201862, “PubChem BioAssay data set” (2004).)
